These are literature values, as cited in US20070287651A1, “Bleaching compositions” (The Procter & Gamble Company, priority 2006, published 2007).

For this data set the following is noted: deionized water at 25° C. (definition).

Turning to `c1ccc2oc(-c3ccc(-c4nc5ccccc5o4)s3)nc2c1` [Tinopal SOP, benzoxazole,2,2′-(thiophenaldyl)bis], the solubility in water result was “lower than 1 gram per liter”.
